Key:
[1] = Oral bioavailability in rat at 10 mg/kg; type: ADME, organism-based; conditions: in vivo
[2] = AUC (0 to infinity) in rat at 1 mg/kg, iv; type: ADME, organism-based; design: route intravenous, time infinity, dose 1 mg/kg; conditions: in vivo
[3] = biological target: Histone-lysine N-methyltransferase 2A (Homo sapiens) (UniProt Q03164); experiment: Inhibition of MLL1 (unknown origin) at 10 uM using SAM as substrate measured up to 960 mins by AlphaScreen microplate reader assay relative to control; conditions: time min <=960
[4] = biological target: Histone-lysine N-methyltransferase SETD7 (Homo sapiens) (UniProt Q8WTS6); experiment: Inhibition of SET7/9 (unknown origin) at 10 uM using SAM as substrate measured up to 960 mins by AlphaScreen microplate reader assay relative to control; conditions: time min <=960
Chain of Histone-lysine N-methyltransferase SETD7 (Homo sapiens) (Q8WTS6 whole entry): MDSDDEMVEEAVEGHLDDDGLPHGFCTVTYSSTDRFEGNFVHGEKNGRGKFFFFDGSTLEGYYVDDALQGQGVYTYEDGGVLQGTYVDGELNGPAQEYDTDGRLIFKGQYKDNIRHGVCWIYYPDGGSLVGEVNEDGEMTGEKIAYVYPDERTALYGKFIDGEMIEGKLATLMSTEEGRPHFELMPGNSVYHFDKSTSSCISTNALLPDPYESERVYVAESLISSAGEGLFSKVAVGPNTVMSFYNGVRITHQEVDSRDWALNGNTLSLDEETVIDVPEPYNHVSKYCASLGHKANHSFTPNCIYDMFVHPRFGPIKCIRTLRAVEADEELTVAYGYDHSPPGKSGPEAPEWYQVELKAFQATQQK

[5] = biological target: Histone-lysine N-methyltransferase SUV39H1 (Homo sapiens) (UniProt O43463); experiment: Inhibition of SUV39H1 (unknown origin) at 10 uM using SAM as substrate measured up to 960 mins by AlphaScreen microplate reader assay relative to control; conditions: time min <=960
Chain of Histone-lysine N-methyltransferase SUV39H1 (Homo sapiens) (O43463 whole entry): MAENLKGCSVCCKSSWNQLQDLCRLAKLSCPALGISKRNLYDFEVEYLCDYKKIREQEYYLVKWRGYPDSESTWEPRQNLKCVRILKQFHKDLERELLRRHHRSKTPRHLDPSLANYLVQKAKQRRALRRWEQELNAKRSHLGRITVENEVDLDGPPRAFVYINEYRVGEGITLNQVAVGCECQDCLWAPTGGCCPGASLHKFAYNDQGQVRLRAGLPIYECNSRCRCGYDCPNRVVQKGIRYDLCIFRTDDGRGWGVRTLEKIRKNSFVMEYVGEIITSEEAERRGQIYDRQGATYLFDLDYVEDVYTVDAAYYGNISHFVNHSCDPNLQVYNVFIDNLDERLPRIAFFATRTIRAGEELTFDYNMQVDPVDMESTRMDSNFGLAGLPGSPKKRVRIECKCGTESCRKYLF

[6] = biological target: Protein arginine N-methyltransferase 1 (Homo sapiens) (UniProt Q99873); experiment: Inhibition of PRMT1 (unknown origin) at 10 uM using SAM as substrate measured up to 960 mins by AlphaScreen microplate reader assay relative to control; conditions: time min <=960
Chain of Protein arginine N-methyltransferase 1 (Homo sapiens) (Q99873 whole entry, looked up): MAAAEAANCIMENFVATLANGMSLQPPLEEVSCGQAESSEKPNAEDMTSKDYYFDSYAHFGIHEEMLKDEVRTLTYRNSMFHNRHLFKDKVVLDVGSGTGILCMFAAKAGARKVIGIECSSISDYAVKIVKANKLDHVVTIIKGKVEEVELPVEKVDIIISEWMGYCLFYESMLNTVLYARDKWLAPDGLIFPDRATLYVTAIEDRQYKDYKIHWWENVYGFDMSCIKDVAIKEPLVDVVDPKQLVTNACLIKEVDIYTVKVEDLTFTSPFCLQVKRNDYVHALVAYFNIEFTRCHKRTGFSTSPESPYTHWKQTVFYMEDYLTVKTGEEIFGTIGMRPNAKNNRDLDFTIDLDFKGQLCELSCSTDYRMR

[7] = biological target: Histone-arginine methyltransferase CARM1 (Homo sapiens) (UniProt Q86X55); experiment: Inhibition of PRMT4 (unknown origin) at 10 uM using SAM as substrate measured up to 960 mins by AlphaScreen microplate reader assay relative to control; conditions: time min <=960
Chain of Histone-arginine methyltransferase CARM1 (Homo sapiens) (Q86X55 whole entry): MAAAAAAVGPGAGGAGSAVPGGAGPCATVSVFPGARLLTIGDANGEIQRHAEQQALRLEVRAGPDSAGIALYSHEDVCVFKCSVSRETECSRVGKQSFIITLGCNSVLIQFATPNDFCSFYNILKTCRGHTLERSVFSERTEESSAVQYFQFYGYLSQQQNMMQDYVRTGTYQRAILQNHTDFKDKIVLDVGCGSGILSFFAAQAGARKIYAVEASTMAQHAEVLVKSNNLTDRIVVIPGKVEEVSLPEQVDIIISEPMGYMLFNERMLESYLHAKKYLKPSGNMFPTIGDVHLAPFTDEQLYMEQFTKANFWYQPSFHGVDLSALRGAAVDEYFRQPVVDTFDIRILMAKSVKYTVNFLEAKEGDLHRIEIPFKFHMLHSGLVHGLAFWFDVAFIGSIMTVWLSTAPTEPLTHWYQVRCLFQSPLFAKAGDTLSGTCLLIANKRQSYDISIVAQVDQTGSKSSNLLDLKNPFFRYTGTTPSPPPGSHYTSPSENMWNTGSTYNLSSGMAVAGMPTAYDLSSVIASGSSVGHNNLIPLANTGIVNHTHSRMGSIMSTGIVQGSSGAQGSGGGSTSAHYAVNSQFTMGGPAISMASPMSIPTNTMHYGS

[8] = biological target: Protein arginine N-methyltransferase 5 (Homo sapiens) (UniProt O14744); experiment: Inhibition of PRMT5 (unknown origin) at 10 uM using SAM as substrate measured up to 960 mins by AlphaScreen microplate reader assay relative to control; conditions: time min <=960
[9] = biological target: F-box only protein 11 (Homo sapiens) (UniProt Q86XK2); experiment: Inhibition of PRMT9 (unknown origin) at 10 uM using SAM as substrate measured up to 960 mins by AlphaScreen microplate reader assay relative to control; conditions: time min <=960
Chain of F-box only protein 11 (Homo sapiens) (Q86XK2 whole entry): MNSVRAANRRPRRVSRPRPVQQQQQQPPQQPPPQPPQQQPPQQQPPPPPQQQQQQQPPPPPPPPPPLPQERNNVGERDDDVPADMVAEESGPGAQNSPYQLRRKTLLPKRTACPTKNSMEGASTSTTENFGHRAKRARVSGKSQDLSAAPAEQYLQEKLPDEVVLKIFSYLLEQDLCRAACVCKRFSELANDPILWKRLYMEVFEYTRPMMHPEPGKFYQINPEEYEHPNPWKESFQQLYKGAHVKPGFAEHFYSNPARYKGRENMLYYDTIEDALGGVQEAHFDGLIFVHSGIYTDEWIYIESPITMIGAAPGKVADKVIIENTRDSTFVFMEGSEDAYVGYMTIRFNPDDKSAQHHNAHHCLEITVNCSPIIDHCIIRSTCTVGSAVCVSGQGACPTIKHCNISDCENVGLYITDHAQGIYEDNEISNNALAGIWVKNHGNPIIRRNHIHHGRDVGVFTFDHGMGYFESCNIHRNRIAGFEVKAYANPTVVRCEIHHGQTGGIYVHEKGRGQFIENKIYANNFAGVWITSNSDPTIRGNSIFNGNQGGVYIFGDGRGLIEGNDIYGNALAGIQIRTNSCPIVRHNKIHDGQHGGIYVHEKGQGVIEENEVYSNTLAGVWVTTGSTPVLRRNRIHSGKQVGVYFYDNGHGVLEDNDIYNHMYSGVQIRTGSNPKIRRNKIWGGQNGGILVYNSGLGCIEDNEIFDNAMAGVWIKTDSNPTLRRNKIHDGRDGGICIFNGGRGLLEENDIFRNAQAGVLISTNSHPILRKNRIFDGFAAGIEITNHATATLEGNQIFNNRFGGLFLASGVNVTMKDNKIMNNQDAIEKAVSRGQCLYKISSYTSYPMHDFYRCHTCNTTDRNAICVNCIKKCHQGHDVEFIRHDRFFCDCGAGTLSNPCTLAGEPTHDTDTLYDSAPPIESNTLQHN

[10] = biological target: Histone-lysine N-methyltransferase NSD2 (Homo sapiens) (UniProt O96028); experiment: Inhibition of NSD2 (unknown origin) at 10 uM using SAM as substrate measured up to 960 mins by AlphaScreen microplate reader assay relative to control; conditions: time min <=960
[11] = biological target: Histone-lysine N-methyltransferase, H3 lysine-79 specific (Homo sapiens) (UniProt Q8TEK3); experiment: Inhibition of DOT1L (unknown origin) at 10 uM using SAM as substrate measured up to 960 mins by AlphaScreen microplate reader assay relative to control; conditions: time min <=960
[12] = biological target: Histone-lysine N-methyltransferase SETD2 (Homo sapiens) (UniProt Q9BYW2); experiment: Inhibition of SETD2 (unknown origin) at 10 uM using SAM as substrate measured up to 960 mins by AlphaScreen microplate reader assay relative to control; conditions: time min <=960
[13] = biological target: N-lysine methyltransferase KMT5A (Homo sapiens) (UniProt Q9NQR1); experiment: Inhibition of SET8 (unknown origin) at 10 uM using SAM as substrate measured up to 960 mins by AlphaScreen microplate reader assay relative to control; conditions: time min <=960
Chain of N-lysine methyltransferase KMT5A (Homo sapiens) (Q9NQR1 whole entry): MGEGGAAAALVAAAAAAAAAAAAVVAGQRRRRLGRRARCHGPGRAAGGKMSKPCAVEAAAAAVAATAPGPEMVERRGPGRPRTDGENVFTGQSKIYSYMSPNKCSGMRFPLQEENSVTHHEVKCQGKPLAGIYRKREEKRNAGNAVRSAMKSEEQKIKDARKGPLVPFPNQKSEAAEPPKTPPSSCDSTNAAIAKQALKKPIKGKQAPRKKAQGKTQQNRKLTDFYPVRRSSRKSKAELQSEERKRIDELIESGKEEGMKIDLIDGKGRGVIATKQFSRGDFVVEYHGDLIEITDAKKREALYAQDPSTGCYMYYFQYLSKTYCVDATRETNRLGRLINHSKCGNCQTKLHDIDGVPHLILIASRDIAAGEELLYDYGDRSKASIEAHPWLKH

[14] = biological target: N-lysine methyltransferase SMYD2 (Homo sapiens) (UniProt Q9NRG4); experiment: Inhibition of SMYD2 (unknown origin) at 10 uM using SAM as substrate measured up to 960 mins by AlphaScreen microplate reader assay relative to control; conditions: time min <=960
[15] = biological target: Histone-lysine N-methyltransferase SMYD3 (Homo sapiens) (UniProt Q9H7B4); experiment: Inhibition of SMYD3 (unknown origin) at 10 uM using SAM as substrate measured up to 960 mins by AlphaScreen microplate reader assay relative to control; conditions: time min <=960
Chain of Histone-lysine N-methyltransferase SMYD3 (Homo sapiens) (Q9H7B4 whole entry): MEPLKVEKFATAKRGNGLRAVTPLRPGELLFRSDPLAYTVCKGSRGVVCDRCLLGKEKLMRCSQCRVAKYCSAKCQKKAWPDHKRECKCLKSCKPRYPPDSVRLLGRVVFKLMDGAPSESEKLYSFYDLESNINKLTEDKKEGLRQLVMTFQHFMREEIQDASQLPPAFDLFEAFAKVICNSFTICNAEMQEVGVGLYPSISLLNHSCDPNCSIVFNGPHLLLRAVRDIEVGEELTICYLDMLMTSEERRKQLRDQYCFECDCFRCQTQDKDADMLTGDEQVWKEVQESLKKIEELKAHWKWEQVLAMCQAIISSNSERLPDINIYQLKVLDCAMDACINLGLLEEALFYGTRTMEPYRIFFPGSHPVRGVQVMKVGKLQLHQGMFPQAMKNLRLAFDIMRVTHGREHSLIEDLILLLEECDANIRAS

[16] = biological target: Histone-lysine N-methyltransferase EZH1 (Homo sapiens) (UniProt Q92800); experiment: Inhibition of EZH1 (unknown origin) at 10 uM using SAM as substrate measured up to 960 mins by AlphaScreen microplate reader assay relative to control; conditions: time min <=960
[17] = biological target: Histone-lysine N-methyltransferase EZH2 (Homo sapiens) (UniProt Q15910); experiment: Inhibition of EZH2 (unknown origin) at 10 uM using SAM as substrate measured up to 960 mins by AlphaScreen microplate reader assay relative to control; conditions: time min <=960
[18] = test system: Histone-lysine N-methyltransferase EZH2 (Homo sapiens), Q15910 [A677G]; experiment: Inhibition of EZH2 A677G mutant (unknown origin) at 10 uM using SAM as substrate measured up to 960 mins by AlphaScreen microplate reader assay relative to control; conditions: time min <=960
Chain of Histone-lysine N-methyltransferase EZH2 (Homo sapiens), Q15910 [A677G] (Q15910 whole entry A677G): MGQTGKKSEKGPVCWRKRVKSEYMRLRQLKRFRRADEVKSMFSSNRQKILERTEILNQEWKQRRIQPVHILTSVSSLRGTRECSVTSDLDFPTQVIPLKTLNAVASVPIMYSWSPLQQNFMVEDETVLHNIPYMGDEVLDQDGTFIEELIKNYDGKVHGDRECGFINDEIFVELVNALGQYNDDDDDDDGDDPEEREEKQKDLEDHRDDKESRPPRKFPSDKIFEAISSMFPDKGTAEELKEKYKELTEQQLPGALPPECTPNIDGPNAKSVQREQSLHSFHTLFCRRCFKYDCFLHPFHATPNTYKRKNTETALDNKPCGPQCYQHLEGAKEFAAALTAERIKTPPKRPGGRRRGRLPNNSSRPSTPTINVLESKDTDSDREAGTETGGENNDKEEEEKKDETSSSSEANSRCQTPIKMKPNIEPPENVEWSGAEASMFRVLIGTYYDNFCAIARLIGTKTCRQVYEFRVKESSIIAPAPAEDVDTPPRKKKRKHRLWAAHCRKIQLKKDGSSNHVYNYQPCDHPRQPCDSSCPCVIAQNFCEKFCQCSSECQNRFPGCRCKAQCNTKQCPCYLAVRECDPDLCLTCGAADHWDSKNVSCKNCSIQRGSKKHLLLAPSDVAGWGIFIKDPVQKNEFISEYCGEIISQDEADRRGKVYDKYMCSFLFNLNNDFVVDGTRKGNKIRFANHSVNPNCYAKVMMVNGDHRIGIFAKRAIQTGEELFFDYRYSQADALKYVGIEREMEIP

[19] = test system: Histone-lysine N-methyltransferase EZH2 (Homo sapiens), Q15910 [Y641F]; experiment: Inhibition of EZH2 Y641F mutant (unknown origin) at 10 uM using SAM as substrate measured up to 960 mins by AlphaScreen microplate reader assay relative to control; conditions: time min <=960
Chain of Histone-lysine N-methyltransferase EZH2 (Homo sapiens), Q15910 [Y641F] (Q15910 whole entry Y641F, looked up): as the sequence (Q15910 whole entry A677G) above, with Y641F, G677A counted along it

[20] = test system: Histone-lysine N-methyltransferase EZH2 (Homo sapiens), Q15910 [Y641H]; experiment: Inhibition of EZH2 Y641H mutant (unknown origin) at 10 uM using SAM as substrate measured up to 960 mins by AlphaScreen microplate reader assay relative to control; conditions: time min <=960
KARPAS-422 [21] = experiment: Antiproliferative activity against human KARPAS-422 cells harboring EZH2 Y641N mutant assessed as inhibition of cell growth measured after 6 days by CellTiter-Glo luminescent assay; type: functional; conditions: KARPAS-422, 144 h, time 6 day
SU-DHL-6 = experiment: Antiproliferative activity against human SU-DHL-6 cells harboring EZH2 Y641N mutant assessed as inhibition of cell growth measured after 6 days by CellTiter-Glo luminescent assay; type: functional; conditions: SU-DHL-6, 144 h, time 6 day
Pfeiffer = experiment: Antitumor activity against human Pfeiffer cells harboring EZH2 A677G mutant xenografted in NCG mouse assessed as tumor growth inhibition at 200 mg/kg, po BID via gavage measured after 28 days relative to control; type: functional; conditions: 672 h, time 28 day, read-out: TGI
KARPAS-422 [22] = experiment: Antitumor activity against human KARPAS-422 cells harboring EZH2 Y641N mutant xenografted in NCG mouse assessed as tumor growth inhibition at 200 mg/kg, po BID via gavage measured after 28 days relative to control; type: functional; conditions: KARPAS-422, po, 672 h, time 28 day, read-out: TGI
[23] = Toxicity in NCG mouse xenografted with human Pfeiffer cells harboring EZH2 A677G mutant assessed as effect on body weight at 50 to 200 mg/kg, po BID via gavage measured after 28 days; type: organism-based; conditions: in vivo, 672 h, dose 50-200 mg/kg, time 28 day
[24] = Half life in mouse at 10 mg/kg, po measured up to 24 hrs by LC-MS/MS analysis; type: ADME, organism-based; conditions: in vivo
[25] = Clearance in mouse at 10 mg/kg, po measured up to 24 hrs by LC-MS/MS analysis; type: ADME, organism-based; conditions: in vivo
[26] = Oral bioavailability in mouse at 10 mg/kg measured up to 24 hrs by LC-MS/MS analysis; type: ADME, organism-based; conditions: in vivo
[27] = Half life in mouse at 1 mg/kg, iv measured up to 24 hrs by LC-MS/MS analysis; type: ADME, organism-based; conditions: in vivo
[28] = Cmax in mouse at 1 mg/kg, iv measured up to 24 hrs by LC-MS/MS analysis; type: ADME, organism-based; design: route intravenous, dose 1 mg/kg, time <=24; conditions: in vivo

Work on `CCN(C(=O)C1CC1)c1cc(-c2ccc(N3CCN(CC4CC4)CC3)nc2C)cc(C(=O)NCc2c(C)cc(C)[nH]c2=O)c1C` yielded a bioavailability [1] of 31%, an AUC(0-inf) [2] of 195 ng·h/mL and an inhibition [3] of 12%. The inhibition [4] was 3%, the inhibition [5] was 1% and the inhibition [6] was 7%. The inhibition [7] was 0%, the inhibition [8] was 0% and the inhibition [9] was 9%. It also gave an inhibition [10] of 10%, an inhibition [11] of 0% and an inhibition [12] of 0%. The inhibition [13] was 2%, the inhibition [14] was 0% and the inhibition [15] was 16%. For the same compound, the inhibition [16] was 92%, the inhibition [17] was 100% and the inhibition [18] was 87%. The inhibition [19] was 99%, the inhibition [20] was 81% and the GI50 (KARPAS-422 [21]) was 0.05 µM. It also gave a GI50 (SU-DHL-6) of 1.1 µM, an inhibition in vivo at 200 mg/kg (Pfeiffer) of 100% and an inhibition in vivo at 200 mg/kg (KARPAS-422 [22]) of 97.3%. The Activity [23] was “Non-Toxic”, the t1/2 [24] was 1.3 h and the CL [25] was 165.9 mL/min/kg. It also gave a bioavailability [26] of 27%, a t1/2 [27] of 5.38 h and a Cmax [28] of 1240 ng/mL.

Reference: ChEMBL document CHEMBL4831544, “Discovery of IHMT-EZH2-115 as a Potent and Selective Enhancer of Zeste Homolog 2 (EZH2) Inhibitor for the Treatment of B-Cell Lymphomas” (J Med Chem, 2021)
